Common to all, as to format: in vivo
The target of data set [1] is T1, Arabidopsis RACK1A (Arabidopsis thaliana, UniProt O24456).
T1 construct: from tissue; host or cells: Arabidopsis plant leaves
Briefly: western blot of RACK1A tyrosine phosphorylation in Arabidopsis leaves under heat stress. The protocol: In the examples described herein, the test compounds (e.g., SD-29 or analogs thereof) were dissolved in dimethyl sulfoxide (DMSO) to provide a 20 mM concentration. Micromolar concentrations were then prepared as needed by addition to the water incubation media. Unless stated otherwise, the experimental plants were incubated with the roots immersed in the water containing the compound. The control plants received only DMSO in the same amount as that of the compound. In the second group (FIG. 3), Arabidopsis plants were held at 42° C. for six hours and compared to control plants held at about 22° C. The Arabidopsis plant in the experimental group was treated with 60 μM SD-29 in water. A control plant received water and DMSO. Lysates were then prepared from the leaves and western blots were performed using immobilized mouse anti-pTRY and Arabidopsis-anti RAC[…]. […] A similar experiment was carried out using analog SD-29-9 and SD-29 at 42° C. for three hours. […] A western blot was then performed using an antibody that was raised targeting phosphorylated […] residue of RAC[…].

Data set [2] concerns rice detached leaves. Put plainly: salt-induced stress in rice detached leaves. The settings on record: seven days. The protocol:
In the examples described herein, the test compounds (e.g., SD-29 or analogs thereof) were dissolved in dimethyl sulfoxide (DMSO) to provide a 20 mM concentration. Micromolar concentrations were then prepared as needed by addition to the water incubation media. Unless stated otherwise, the experimental plants were incubated with the roots immersed in the water containing the compound. The control plants received only DMSO in the same amount as that of the compound. The effect of SD-29 on modulating salt-induced stress was evaluated with rice detached leaves at room temperature (about 24° C.) for seven days in a water incubation medium. All plants received sufficient incubation medium to last the seven days. Plant A (left most) received 250 mM NaCl plus DMSO, Plant B (right of Plant A) received 60 μM SD-29 and 250 mM NaCl, and plant D received 60 μM SD-29 in the incubation medium. The incubation medium of Plant C was untreated. The rice plant leaves were photographed directly after seven days. […] Much of the chlorophyll of plant A (salt treatment alone) was degraded, while SD-29 treated leaves (Leaf B) maintained the chlorophyll level even in the presence of the same amount of salt.

In data set [3] the test system is tomato plants. Put plainly: salt-induced stress in tomato plants. The conditions noted are these: 60 μM compound plus 250 mM NaCl, five days, about 24° C. The protocol: In the examples described herein, the test compounds (e.g., SD-29 or analogs thereof) were dissolved in dimethyl sulfoxide (DMSO) to provide a 20 mM concentration. Micromolar concentrations were then prepared as needed by addition to the water incubation media. Unless stated otherwise, the experimental plants were incubated with the roots immersed in the water containing the compound. The control plants received only DMSO in the same amount as that of the compound. Salt-induced stress was evaluated with tomato plants at room temperature (about 24° C.) for five days. The plants received sufficient incubation media to last through the five day experiment. Plant A received 60 μM SD-29 plus 250 mM NaCl and plant B received 250 mM NaCl (plus DMSO in the same volume as the volume of SD-29 received by plant A) in the incubation medium.

Data set [4] relates to pepper plants. Put plainly: salt-induced stress in pepper plants. The conditions noted are these: 60 μM compound plus 250 mM NaCl, 48 hours, about 24° C. The protocol:
In the examples described herein, the test compounds (e.g., SD-29 or analogs thereof) were dissolved in dimethyl sulfoxide (DMSO) to provide a 20 mM concentration. Micromolar concentrations were then prepared as needed by addition to the water incubation media. Unless stated otherwise, the experimental plants were incubated with the roots immersed in the water containing the compound. The control plants received only DMSO in the same amount as that of the compound.
Salt-induced stress was evaluated with pepper plants at room temperature (about 24° C.) for 48 hours. All plants received sufficient incubation media to last the seven days. Plant A received 60 μM SD-29 plus 250 mM NaCl and plant B received 250 mM NaCl in the incubation medium with DMSO.

Data set [5] has as its system Cu/Zn SOD. Briefly: native gel analysis of superoxide dismutase activity in pepper leaf lysate. The settings on record: 60 μM compound plus 250 mM NaCl, vs DMSO treated plants. The protocol: Native gel analysis was performed on a lysate prepared from the pepper plant leaves in FIG. 8. The gel is stained for detecting enzymatic activity of different isoforms of superoxide dismutase—key enzymes that detoxify the reactive oxygen species which usually develop during the stress conditions. […] Therefore, it appears that SD-29 may help detoxify the cellular reactive oxygen species generated during the salt stress conditions.

In data set [6] the target is T2, rice RACK1A (Oryza sativa subsp. japonica, UniProt P49027).
T2 construct: from tissue; host or cells: rice leaves
Put plainly: western blot with anti-pY248 of rice leaf lysates under salt stress. The settings on record: 60 μM compound and 250 mM NaCl, 75 μg protein per lane. As to the method:
The rice leaves were also analyzed by Western blot. Lysates were prepared from the leaves and western blot analysis was carried out using standard methods. 75 μg protein were loaded per lane. The membrane containing transferred proteins were probed with anti-pY248, which is an antibody raised to specifically detect phosphorylated tyrosine at residue 248 of RACK1A.
On the technique in general: Immunoblotting shows a protein as a band on a membrane.

The subject of data set [7] is chloroplastic Cu—Zn SOD. Briefly: native gel assay of SOD activity in rice leaves. The settings on record: set up as FIG. 5: 60 μM compound, 250 mM NaCl; wild-type and RACK1 over-expressing (OX) rice. As to the method: Native gel analysis was performed on a lysate prepared from the pepper plant leaves in FIG. 8. The gel is stained for detecting enzymatic activity of different isoforms of superoxide dismutase—key enzymes that detoxify the reactive oxygen species which usually develop during the stress conditions. […] Therefore, it appears that SD-29 may help detoxify the cellular reactive oxygen species generated during the salt stress conditions. The wild-type rice plants were compared to a rice plant over-expressing rice RACK1 protein (referred to as “OX”). The OX plants were treated as described in this example for the wild-type rice plant. Native gel assay was performed as described for FIG. 8 and the experimental set up was exactly the same as described for FIG. 5.

T1 sequence (O24456 whole entry): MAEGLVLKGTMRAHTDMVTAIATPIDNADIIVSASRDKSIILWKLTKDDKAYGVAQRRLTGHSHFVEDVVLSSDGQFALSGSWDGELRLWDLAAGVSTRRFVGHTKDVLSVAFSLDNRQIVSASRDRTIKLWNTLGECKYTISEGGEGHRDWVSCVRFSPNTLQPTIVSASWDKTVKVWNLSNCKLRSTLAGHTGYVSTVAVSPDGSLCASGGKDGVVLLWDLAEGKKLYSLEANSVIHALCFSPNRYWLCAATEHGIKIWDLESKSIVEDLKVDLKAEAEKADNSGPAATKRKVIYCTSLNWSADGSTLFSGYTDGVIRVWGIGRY
T2 sequence (P49027 whole entry): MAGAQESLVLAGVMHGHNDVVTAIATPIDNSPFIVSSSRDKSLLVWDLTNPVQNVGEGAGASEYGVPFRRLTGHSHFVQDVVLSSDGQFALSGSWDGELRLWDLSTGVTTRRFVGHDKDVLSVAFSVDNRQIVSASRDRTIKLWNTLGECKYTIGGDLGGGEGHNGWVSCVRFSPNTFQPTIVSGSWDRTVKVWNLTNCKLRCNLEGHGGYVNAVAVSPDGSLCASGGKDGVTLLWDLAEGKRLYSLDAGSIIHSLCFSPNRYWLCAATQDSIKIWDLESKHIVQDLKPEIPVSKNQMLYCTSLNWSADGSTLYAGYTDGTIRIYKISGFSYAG

As for `Nn1c(S)nnc1-c1ccc(F)cc1` [SD-29], the “Arabidopsis RACK1A tyrosine phosphorylation during heat stress” value in data set [1] (60 μM, 42° C. for six hours, western blot of leaf lysates) was “prevents Arabidopsis RACK1A tyrosine phosphorylation”. Moreover, the “Arabidopsis RACK1A tyrosine phosphorylation at increased temperature” value in data set [1] (42° C. for three hours, western blot, antibody to phosphorylated Y248) is reported as “effective to prevent Arabidopsis RACK1A tyrosine phosphorylation at increased temperature”. The “salt stress-induced chlorosis of rice leaves” value in data set [2] (60 μM compound and 250 mM NaCl, about 24° C.) was “protect the rice leaves from salt stress-induced chlorosis”. Moreover, the “rice leaf appearance with compound alone” value in data set [2] (60 μM compound without salt, vs untreated Leaf C) is given as “showed little difference from control Leaf C”. Further, in data set [3], the “tomato plant condition in high salt” value was “thrived (did not wilt) in the high salt conditions”. Moreover, the “pepper plant condition in high salt” value in data set [4] is reported as “thrived in the high salt conditions (with no chlorosis)”. Also, in data set [5], the “cytoplasmic and chloroplastic Cu/Zn SOD enzyme activities in pepper leaves” value was “caused upregulation of both the cytoplasmic (lower band) and chloroplastic (upper band) Cu/Zn SOD enzyme activities”. Besides, the “rice RACK1A tyrosine (Y248) phosphorylation under salt stress” value in data set [6] was “significantly inhibited rice RACK1A tyrosine phosphorylation”. Also, the “chloroplastic Cu—Zn SOD activity in rice leaves” value in data set [7] was “upregulates chloroplastic Cu—Zn SOD activity”.
